Laboratory results: ChEMBL document CHEMBL3997821, “Design, synthesis and evaluation of novel pyrazolo-pyrimido[4,5-d]pyrimidine derivatives as potent antibacterial and biofilm inhibitors” (Bioorg Med Chem Lett, 2017)
Converted amounts (≈) assume the structure as drawn.

What was measured:
Type in all cases: functional
Bacillus subtilis [1] = experiment: Antibacterial activity against Bacillus subtilis MTCC 121 after 24 hrs by well diffusion method; settings: MTCC 121, 24 h
Staphylococcus aureus [2] = experiment: Antibacterial activity against Staphylococcus aureus MTCC 96 after 24 hrs by well diffusion method; settings: MTCC 96, 24 h
Staphylococcus aureus [3] = experiment: Antibacterial activity against Staphylococcus aureus MLS16 MTCC 2940 after 24 hrs by well diffusion method; settings: MLS16 MTCC 2940, 24 h
Micrococcus luteus [4] = experiment: Antibacterial activity against Micrococcus luteus MTCC 2470 after 24 hrs by well diffusion method; settings: MTCC 2470, 24 h
Raoultella planticola = experiment: Antibacterial activity against Klebsiella planticola MTCC 530 after 24 hrs by well diffusion method; settings: MTCC 530, 24 h
Escherichia coli = experiment: Antibacterial activity against Escherichia coli MTCC 739 after 24 hrs by well diffusion method; settings: MTCC 739, 24 h
Pseudomonas aeruginosa = experiment: Antibacterial activity against Pseudomonas aeruginosa MTCC 2453 after 24 hrs by well diffusion method; settings: MTCC 2453, 24 h
Staphylococcus aureus [5] = experiment: Bactericidal activity against Staphylococcus aureus MTCC 96 after 24 hrs by serial dilution method; settings: MTCC 96, 24 h
Bacillus subtilis [6] = experiment: Bactericidal activity against Bacillus subtilis MTCC 121 after 24 hrs by serial dilution method; settings: MTCC 121, 24 h
Staphylococcus aureus [7] = experiment: Bactericidal activity against Staphylococcus aureus MLS16 MTCC 2940 after 24 hrs by serial dilution method; settings: MLS16 MTCC 2940, 24 h
Micrococcus luteus [8] = experiment: Bactericidal activity against Micrococcus luteus MTCC 2470 after 24 hrs by serial dilution method; settings: MTCC 2470, 24 h
Bacillus subtilis [9] = experiment: Ratio of MBC to MIC for Bacillus subtilis MTCC 121
Staphylococcus aureus [10] = experiment: Ratio of MBC to MIC for Staphylococcus aureus MLS16 MTCC 2940

SMILES | MIC (Bacillus subtilis [1]) | MIC (Staphylococcus aureus [2]) | MIC (Staphylococcus aureus [3]) | MIC (Micrococcus luteus [4]) | MIC (Raoultella planticola) | MIC (Escherichia coli) | MIC (Pseudomonas aeruginosa) | MBC (Staphylococcus aureus [5]) | MBC (Bacillus subtilis [6]) | MBC (Staphylococcus aureus [7]) | MBC (Micrococcus luteus [8]) | Ratio (Bacillus subtilis [9]) | Ratio (Staphylococcus aureus [10])
Cn1c2c(c(=O)n(C)c1=O)C(c1cn(-c3ccccc3)nc1-c1ccc(Cl)cc1)N(c1ccc(Cl)cc1)C=N2 (stereo not given) | > 125 µg/mL | > 125 µg/mL | > 125 µg/mL | > 125 µg/mL | > 125 µg/mL | > 125 µg/mL | > 125 µg/mL |  |  |  |  |  | 
Cc1ccc(N2C=Nc3c(c(=O)n(C)c(=O)n3C)C2c2cn(-c3ccccc3)nc2-c2ccccc2)cc1 (stereo not given) | > 125 µg/mL | > 125 µg/mL | > 125 µg/mL | > 125 µg/mL | > 125 µg/mL | > 125 µg/mL | > 125 µg/mL |  |  |  |  |  | 
COc1ccc(N2C=Nc3c(c(=O)n(C)c(=O)n3C)C2c2cn(-c3ccccc3)nc2-c2ccc(Cl)cc2)cc1 (stereo not given) | 31.2 µg/mL (≈ 56.4 µM) | 15.6 µg/mL (≈ 28.2 µM) | 15.6 µg/mL (≈ 28.2 µM) | 7.8 µg/mL (≈ 14.1 µM) | > 125 µg/mL | > 125 µg/mL | > 125 µg/mL | 31.2 µg/mL (≈ 56.4 µM) | 31.2 µg/mL (≈ 56.4 µM) | 15.6 µg/mL (≈ 28.2 µM) | 15.6 µg/mL (≈ 28.2 µM) | 2 | 2
Cn1c2c(c(=O)n(C)c1=O)C(c1cn(-c3ccccc3)nc1-c1ccc([N+](=O)[O-])cc1)N(c1cccc([N+](=O)[O-])c1)C=N2 (stereo not given) | > 125 µg/mL | > 125 µg/mL | > 125 µg/mL | 31.2 µg/mL (≈ 53.9 µM) | > 125 µg/mL | > 125 µg/mL | > 125 µg/mL | > 125 µg/mL | > 125 µg/mL | > 125 µg/mL | 62.5 µg/mL (≈ 108 µM) |  | 
COc1ccc(N2C=Nc3c(c(=O)n(C)c(=O)n3C)C2c2cn(-c3ccccc3)nc2-c2cccs2)cc1 (stereo not given) | 31.2 µg/mL (≈ 59.5 µM) | 15.6 µg/mL (≈ 29.7 µM) | 15.6 µg/mL (≈ 29.7 µM) | 15.6 µg/mL (≈ 29.7 µM) | > 125 µg/mL | > 125 µg/mL | > 125 µg/mL | 31.2 µg/mL (≈ 59.5 µM) | 31.2 µg/mL (≈ 59.5 µM) | 31.2 µg/mL (≈ 59.5 µM) | 15.6 µg/mL (≈ 29.7 µM) |  | 
Cn1c2c(c(=O)n(C)c1=O)C(c1cn(-c3ccccc3)nc1-c1cccs1)N(c1ccccc1)C=N2 (stereo not given) | 31.2 µg/mL (≈ 63.1 µM) | 31.2 µg/mL (≈ 63.1 µM) | 15.6 µg/mL (≈ 31.5 µM) | 15.6 µg/mL (≈ 31.5 µM) | > 125 µg/mL | > 125 µg/mL | > 125 µg/mL |  |  |  |  |  | 
Cn1c2c(c(=O)n(C)c1=O)C(c1cn(-c3ccccc3)nc1-c1cccs1)N(c1cccc([N+](=O)[O-])c1)C=N2 (stereo not given) | > 125 µg/mL | > 125 µg/mL | > 125 µg/mL | > 125 µg/mL | > 125 µg/mL | > 125 µg/mL | > 125 µg/mL |  |  |  |  |  | 
Cn1c2c(c(=O)n(C)c1=O)C(c1cn(-c3ccccc3)nc1-c1ccccc1)N(c1ccc(Cl)cc1)C=N2 (stereo not given) | > 125 µg/mL | > 125 µg/mL | > 125 µg/mL | > 125 µg/mL | > 125 µg/mL | > 125 µg/mL | > 125 µg/mL | 62.5 µg/mL (≈ 120 µM) | 62.5 µg/mL (≈ 120 µM) | 62.5 µg/mL (≈ 120 µM) | 31.2 µg/mL (≈ 59.7 µM) |  | 
Cn1c2c(c(=O)n(C)c1=O)C(c1cn(-c3ccccc3)nc1-c1ccc(Cl)cc1)N(c1ccccc1)C=N2 (stereo not given) | > 125 µg/mL | > 125 µg/mL | > 125 µg/mL | > 125 µg/mL | > 125 µg/mL | > 125 µg/mL | > 125 µg/mL |  |  |  |  |  | 
COc1ccc(N2C=Nc3c(c(=O)n(C)c(=O)n3C)C2c2cn(-c3ccccc3)nc2-c2ccc([N+](=O)[O-])cc2)cc1 (stereo not given) | 31.2 µg/mL (≈ 55.4 µM) | 31.2 µg/mL (≈ 55.4 µM) | 31.2 µg/mL (≈ 55.4 µM) | 15.6 µg/mL (≈ 27.7 µM) | > 125 µg/mL | > 125 µg/mL | > 125 µg/mL | 62.5 µg/mL (≈ 111 µM) | 31.2 µg/mL (≈ 55.4 µM) | 31.2 µg/mL (≈ 55.4 µM) | 15.6 µg/mL (≈ 27.7 µM) |  | 
Cn1c2c(c(=O)n(C)c1=O)C(c1cn(-c3ccccc3)nc1-c1cccs1)N(c1ccc(Cl)cc1)C=N2 (stereo not given) | 15.6 µg/mL (≈ 29.5 µM) | 31.2 µg/mL (≈ 59 µM) | 15.6 µg/mL (≈ 29.5 µM) | 15.6 µg/mL (≈ 29.5 µM) | > 125 µg/mL | > 125 µg/mL | > 125 µg/mL | 31.2 µg/mL (≈ 59 µM) | 31.2 µg/mL (≈ 59 µM) | 31.2 µg/mL (≈ 59 µM) | 31.2 µg/mL (≈ 59 µM) |  | 
Cn1c2c(c(=O)n(C)c1=O)C(c1cn(-c3ccccc3)nc1-c1ccc([N+](=O)[O-])cc1)N(c1ccc(Cl)cc1)C=N2 (stereo not given) | > 125 µg/mL | > 125 µg/mL | > 125 µg/mL | > 125 µg/mL | > 125 µg/mL | > 125 µg/mL | > 125 µg/mL |  |  |  |  |  | 
Cc1ccc(N2C=Nc3c(c(=O)n(C)c(=O)n3C)C2c2cn(-c3ccccc3)nc2-c2cccs2)cc1 (stereo not given) | 31.2 µg/mL (≈ 61.3 µM) | 15.6 µg/mL (≈ 30.7 µM) | 15.6 µg/mL (≈ 30.7 µM) | 15.6 µg/mL (≈ 30.7 µM) | > 125 µg/mL | > 125 µg/mL | > 125 µg/mL | 31.2 µg/mL (≈ 61.3 µM) | 31.2 µg/mL (≈ 61.3 µM) | 31.2 µg/mL (≈ 61.3 µM) | 31.2 µg/mL (≈ 61.3 µM) |  | 
Cc1ccc(N2C=Nc3c(c(=O)n(C)c(=O)n3C)C2c2cn(-c3ccccc3)nc2-c2ccc(Cl)cc2)cc1 (stereo not given) | > 125 µg/mL | > 125 µg/mL | > 125 µg/mL | 15.6 µg/mL (≈ 29 µM) | > 125 µg/mL | > 125 µg/mL | > 125 µg/mL | > 125 µg/mL | > 125 µg/mL | > 125 µg/mL | 31.2 µg/mL (≈ 58.1 µM) |  | 
COc1ccc(N2C=Nc3c(c(=O)n(C)c(=O)n3C)C2c2cn(-c3ccccc3)nc2-c2ccccc2)cc1 (stereo not given) | > 125 µg/mL | > 125 µg/mL | > 125 µg/mL | > 125 µg/mL | > 125 µg/mL | > 125 µg/mL | > 125 µg/mL |  |  |  |  |  | 
Cc1ccc(-c2nn(-c3ccccc3)cc2C2c3c(n(C)c(=O)n(C)c3=O)N=CN2c2cccc([N+](=O)[O-])c2)cc1 (stereo not given) | > 125 µg/mL | > 125 µg/mL | > 125 µg/mL | > 125 µg/mL | > 125 µg/mL | > 125 µg/mL | > 125 µg/mL |  |  |  |  |  | 
Cn1c2c(c(=O)n(C)c1=O)C(c1cn(-c3ccccc3)nc1-c1ccccc1)N(c1ccccc1)C=N2 (stereo not given) | 62.5 µg/mL (≈ 128 µM) | 31.2 µg/mL (≈ 63.9 µM) | 15.6 µg/mL (≈ 31.9 µM) | 7.8 µg/mL (≈ 16 µM) | > 125 µg/mL | > 125 µg/mL | > 125 µg/mL |  |  |  |  |  | 
COc1ccc(N2C=Nc3c(c(=O)n(C)c(=O)n3C)C2c2cn(-c3ccccc3)nc2-c2ccc(C)cc2)cc1 (stereo not given) | > 125 µg/mL | > 125 µg/mL | > 125 µg/mL | > 125 µg/mL | > 125 µg/mL | > 125 µg/mL | > 125 µg/mL | 62.5 µg/mL (≈ 117 µM) | 62.5 µg/mL (≈ 117 µM) | 31.2 µg/mL (≈ 58.6 µM) | 15.6 µg/mL (≈ 29.3 µM) |  | 
Cn1c2c(c(=O)n(C)c1=O)C(c1cn(-c3ccccc3)nc1-c1ccc(Cl)cc1)N(c1cccc([N+](=O)[O-])c1)C=N2 (stereo not given) | > 125 µg/mL | > 125 µg/mL | > 125 µg/mL | > 125 µg/mL | > 125 µg/mL | > 125 µg/mL | > 125 µg/mL |  |  |  |  |  | 
Cc1ccc(-c2nn(-c3ccccc3)cc2C2c3c(n(C)c(=O)n(C)c3=O)N=CN2c2ccccc2)cc1 (stereo not given) | > 125 µg/mL | > 125 µg/mL | > 125 µg/mL | > 125 µg/mL | > 125 µg/mL | > 125 µg/mL | > 125 µg/mL |  |  |  |  |  | 
Cn1c2c(c(=O)n(C)c1=O)C(c1cn(-c3ccccc3)nc1-c1ccc([N+](=O)[O-])cc1)N(c1ccccc1)C=N2 (stereo not given) | > 125 µg/mL | > 125 µg/mL | > 125 µg/mL | > 125 µg/mL | > 125 µg/mL | > 125 µg/mL | > 125 µg/mL |  |  |  |  |  | 
